Data published in ChEMBL document CHEMBL1154268, “Bioactive guanidine alkaloids from two Caribbean marine sponges” (J Nat Prod, 2009).

Legend:
HeLa = assay: Cytotoxicity against human HeLa cells by sulforhodamine B assay; format: functional; settings: read-out: TC50 (the source's name)
[1] = Selective index, ratio of TC50 for human HeLa cells to IC50 for Plasmodium falciparum FcB1/Columbia; format: functional
Plasmodium falciparum = assay: Antimalarial activity against chloroquine-resistant Plasmodium falciparum FcB1/Columbia infected in human erythrocytes assessed as inhibition of [G-3H]hypoxanthine incorporation after 24 hrs by scintillation counting; format: functional, organism-based
MDA-MB-231 = assay: Growth inhibition of human MDA-MB-231 cells by sulforhodamine B assay; format: functional; settings: for CC50: read-out: LC50 (the source's name)
A549 = assay: Growth inhibition of human A549 cells by sulforhodamine B assay; format: functional; settings: for CC50: read-out: LC50 (the source's name)
HT-29 = assay: Growth inhibition of human HT-29 cells by sulforhodamine B assay; format: functional
Vero = assay: Cytotoxicity against african green monkey Vero cells; format: cell-based; settings: chlorocebus sabaeus

Compound: CCCCCCCCC[C@@H]1C[C@@H]2CC[C@H]3[C@@H](C(=O)OCCCCCCCCC[C@H]4NC(=N)N5CCCC5=C4C(=O)OCCCCNC(=N)N)[C@@H](C)N=C(N1)N23 [BATZELLADINE A]
- CC50 (HeLa): 2.9 µM
- Selectivity Index [1]: 9.7
- IC50 (Plasmodium falciparum): 0.3 µM

Compound: CCCCCCCCC[C@@H]1C[C@@H]2CC[C@H]3[C@@H](C(=O)OC(C)CCCCCCC[C@@H]4C[C@@H]5CC[C@@H]6C[C@H](C)NC(=N4)N65)[C@@H](C)N=C(N1)N23 (some centres undefined) [BATZELLADINE L]
- CC50 (HeLa): < 0.1 µM
- Selectivity Index [1]: <1
- IC50 (Plasmodium falciparum): 0.3 µM

Compound: CCCCCCC[C@@H]1C[C@@H]2CCc3c(C(=O)O)c(C)nc([n+]32)N1 [CLATHRIADIC ACID]
- GI50 (MDA-MB-231): 13.5 µM
- TGI (MDA-MB-231): > 30 µM
- CC50 (MDA-MB-231): > 30 µM
- GI50 (A549): > 30 µM
- TGI (A549): > 30 µM
- CC50 (A549): > 30 µM
- IC50 (Plasmodium falciparum): 2.3 µM
- GI50 (HT-29): > 30 µM
- LC50 (concentration killing 50% of cells) (HT-29): > 30 µM
- TGI (HT-29): > 30 µM

Compound: CCCCCCCCC[C@@H]1C[C@@H]2CCc3c(C(=O)OCCCCNC(=N)N)c(CCCCC)nc([n+]32)N1 [DIHOMODEHYDROBATZELLADINE C]
- GI50 (MDA-MB-231): 6.1 µM
- TGI (MDA-MB-231): 9.8 µM
- CC50 (MDA-MB-231): 15.6 µM
- GI50 (A549): 4.7 µM
- TGI (A549): 8.2 µM
- CC50 (A549): 13.1 µM
- IC50 (Plasmodium falciparum): 4.5 µM
- GI50 (HT-29): 3.1 µM
- LC50 (concentration killing 50% of cells) (HT-29): 8.2 µM
- TGI (HT-29): 5.1 µM

Compound: CCCCCCC[C@@H]1C[C@@H]2CC[C@H]3[C@@H](C(=O)OCCCCCCCCC[C@H]4NC(=N)N5CCCC5=C4C(=O)OCCCCNC(=N)N)[C@@H](C)N=C(N1)N23 [DINORBATZELLADINE A]
- GI50 (MDA-MB-231): 3 µM
- TGI (MDA-MB-231): 3.8 µM
- CC50 (MDA-MB-231): 4.6 µM
- GI50 (A549): 4.9 µM
- TGI (A549): 5.1 µM
- CC50 (A549): 5.4 µM
- IC50 (Plasmodium falciparum): 0.9 µM
- GI50 (HT-29): 1.9 µM
- LC50 (concentration killing 50% of cells) (HT-29): 7.6 µM
- TGI (HT-29): 4.2 µM

Compound: CCCCCCC[C@@H]1C[C@@H]2CCc3c(C(=O)OCCCCCCC[C@H]4NC(=N)N5CCCC5=C4C(=O)OCCCCNC(=N)N)c(C)nc([n+]32)N1 [DINORDEHYDROBATZELLADINE B]
- GI50 (A549): 7.9 µM
- TGI (A549): > 14 µM
- CC50 (A549): > 14 µM
- IC50 (Plasmodium falciparum): 0.8 µM
- GI50 (HT-29): 6.2 µM
- LC50 (concentration killing 50% of cells) (HT-29): > 14 µM
- TGI (HT-29): > 14 µM

Compound: CCCCCCCC[C@@H]1C[C@@H]2CC[C@H]3[C@@H](C(=O)OCCCCCCCCC[C@H]4NC(=N)N5CCCC5=C4C(=O)OCCCCNC(=N)N)[C@@H](C)N=C(N1)N23 [NORBATZELLADINE A]
- CC50 (HeLa): 4.7 µM
- GI50 (MDA-MB-231): 3.8 µM
- TGI (MDA-MB-231): 6.4 µM
- CC50 (MDA-MB-231): 11.4 µM
- Selectivity Index [1]: 23.5
- GI50 (A549): 2.1 µM
- TGI (A549): 4.6 µM
- CC50 (A549): 8.6 µM
- IC50 (Plasmodium falciparum): 0.2 µM
- GI50 (HT-29): 1.6 µM
- LC50 (concentration killing 50% of cells) (HT-29): 5.7 µM
- TGI (HT-29): 3.2 µM

Compound: CCCCCCCC[C@@H]1C[C@@H]2CC[C@H]3[C@@H](C(=O)OC(C)CCCCCCC[C@@H]4C[C@@H]5CC[C@@H]6C[C@H](C)NC(=N4)N65)[C@@H](C)N=C(N1)N23 (some centres undefined) [NORBATZELLADINE L]
- GI50 (MDA-MB-231): 0.7 µM
- TGI (MDA-MB-231): 1.9 µM
- CC50 (MDA-MB-231): 4.8 µM
- GI50 (A549): 1.1 µM
- TGI (A549): 2.1 µM
- CC50 (A549): 4.2 µM
- IC50 (Plasmodium falciparum): 0.4 µM
- GI50 (HT-29): 1.2 µM
- LC50 (concentration killing 50% of cells) (HT-29): 4 µM
- TGI (HT-29): 2.2 µM

Compound: CC[C@H]1CCCC[C@@]2(C[C@@H]3CC[C@@H]4[C@H](C(=O)OCCCCCCCCCCCCCCCC(=O)N(CCCN)CCCCN)[C@]5(CCC[C@@H](C)O5)NC(=[N+]34)N2)O1.[Cl-] [PTILOMYCALIN A]
- CC50 (HeLa): 0.1 µM
- Selectivity Index [1]: 1.4
- Activity (Vero): Non-toxic
- IC50 (Plasmodium falciparum): 0.1 µM
